Experiment: Solubility in 90 g/L salt solution at 50° C.
Assay type: physicochemical
Description: 9% w/v solutions of Dyestuff (Ia) and of Dyestuff (5) were prepared at 50° C. and salt added to produce a 90 g/L salt solution. After 30 mins, 4.2% of Dyestuff (Ia) remained in solution whilst only 2.8% of Dyestuff (5) remained in solution. Thus Dyestuff (Ia) is 50% more soluble in 90 g/L salt at 50° C. than Dyestuff (5). This factor can be crucial as dyeings are carried out at high salt concentrations and better salt solubility can avoid problems with unlevel exhaustion onto the fibre from an exhaust dyebath.

In the case of `Cc1ccc(Nc2nc(Cl)nc(Nc3ccc(/N=N/c4c(N)c(S(=O)(=O)O)cc5cc(S(=O)(=O)O)cc(O)c45)c(S(=O)(=O)O)c3)n2)c(Nc2nc(Cl)nc(Nc3ccc(/N=N/c4c(N)c(S(=O)(=O)O)cc5cc(S(=O)(=O)O)cc(O)c45)c(S(=O)(=O)O)c3)n2)c1` [Dyestuff (Ia)], the “dyestuff remained in solution” value (9% w/v solution prepared at 50° C., salt added to give 90 g/L salt solution, after 30 mins) was 4.2% and the “more soluble than Dyestuff (5)” value (in 90 g/L salt at 50° C., relative to Dyestuff (5)) was 50%.

Reference: US7026458B2, “High light fastness reactive red dyes” (DyStar Textilfarben GbmH & Co. Deutschland KG, priority 2003, dated 2006)
